Laboratory results taken from ChEMBL document CHEMBL4184094, “Spiro-1-benzofuranpiperidinylalkanoic acids as a novel and selective sphingosine S1P5 receptor agonist chemotype” (Bioorg Med Chem Lett, 2018).
In brackets after ≈: the same amount, converted by molar mass.

Key:
[1] = molecular target: Sphingosine 1-phosphate receptor 5 (Homo sapiens, UniProt Q9H228); test: Agonist activity at human S1P5 receptor expressed in CHO cells assessed as increase in calcium flux by aequorin-derived luminescence assay; assay type: functional, cell-based
Sphingosine 1-phosphate receptor 5, sequence (Q9H228 whole entry): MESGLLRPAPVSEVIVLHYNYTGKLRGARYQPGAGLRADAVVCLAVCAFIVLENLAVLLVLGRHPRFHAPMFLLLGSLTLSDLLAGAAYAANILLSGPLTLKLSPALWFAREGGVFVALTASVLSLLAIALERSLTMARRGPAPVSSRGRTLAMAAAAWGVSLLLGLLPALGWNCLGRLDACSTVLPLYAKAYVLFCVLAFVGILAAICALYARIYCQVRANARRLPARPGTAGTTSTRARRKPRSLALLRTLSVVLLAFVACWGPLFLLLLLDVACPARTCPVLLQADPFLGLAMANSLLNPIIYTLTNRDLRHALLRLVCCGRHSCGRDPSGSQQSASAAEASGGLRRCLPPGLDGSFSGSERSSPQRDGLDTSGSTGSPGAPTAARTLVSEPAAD

[2] = molecular target: Sphingosine 1-phosphate receptor 1 (Homo sapiens, UniProt P21453); test: Agonist activity at human S1P1 receptor expressed in CHO cells assessed as increase in calcium flux by aequorin-derived luminescence assay; assay type: functional, cell-based
Sphingosine 1-phosphate receptor 1, sequence (P21453 whole entry): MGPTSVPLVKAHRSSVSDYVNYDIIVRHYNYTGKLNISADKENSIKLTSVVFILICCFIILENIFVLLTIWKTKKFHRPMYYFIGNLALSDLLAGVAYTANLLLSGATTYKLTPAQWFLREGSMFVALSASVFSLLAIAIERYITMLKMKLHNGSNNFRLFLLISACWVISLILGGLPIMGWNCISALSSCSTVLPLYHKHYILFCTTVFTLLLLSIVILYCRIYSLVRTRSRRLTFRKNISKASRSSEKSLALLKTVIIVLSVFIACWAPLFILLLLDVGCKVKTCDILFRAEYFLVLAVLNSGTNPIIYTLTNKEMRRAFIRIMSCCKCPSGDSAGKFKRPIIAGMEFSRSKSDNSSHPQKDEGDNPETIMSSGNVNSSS

[3] = Oral bioavailability in rat; assay type: ADME, organism-based; details: in vivo
[4] = Intrinsic clearance in human microsomes assessed per mg protein; assay type: ADME, Microsome
[5] = Half life in human microsomes assessed per mg protein; assay type: ADME, Microsome
[6] = Ratio of drug uptake in CNS to plasma in po dosed rat; assay type: ADME, organism-based; details: CNS and plasma
[7] = Aqueous kinetic solubility of the compound by turbidimetric method; assay type: physicochemical; details: buffer; read-out: Kinetic_solubility
[8] = molecular target: Sphingosine 1-phosphate receptor 3 (Homo sapiens, UniProt Q99500); test: Agonist activity at human S1P3 receptor expressed in CHO cells assessed as increase in calcium flux by aequorin-derived luminescence assay; assay type: functional, cell-based
Sphingosine 1-phosphate receptor 3, sequence (Q99500 whole entry): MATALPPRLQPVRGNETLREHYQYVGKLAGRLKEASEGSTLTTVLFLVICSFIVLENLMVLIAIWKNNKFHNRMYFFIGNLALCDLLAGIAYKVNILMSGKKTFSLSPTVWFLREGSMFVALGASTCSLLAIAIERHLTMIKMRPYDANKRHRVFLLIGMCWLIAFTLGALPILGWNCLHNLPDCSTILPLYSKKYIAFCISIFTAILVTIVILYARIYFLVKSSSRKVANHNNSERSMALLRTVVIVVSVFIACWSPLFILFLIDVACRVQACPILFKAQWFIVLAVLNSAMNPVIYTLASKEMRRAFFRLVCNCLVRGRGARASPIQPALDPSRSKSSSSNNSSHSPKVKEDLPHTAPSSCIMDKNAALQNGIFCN

Homo sapiens [9] = species on record: Homo sapiens; test: Selectivity ratio of EC50 for human S1P5 receptor expressed in CHO cells to EC50 for human S1P3 receptor expressed in CHO cells; assay type: cell-based
Homo sapiens [10] = species on record: Homo sapiens; test: Selectivity ratio of EC50 for human S1P5 receptor expressed in CHO cells to EC50 for human S1P1 receptor expressed in CHO cells; assay type: cell-based

Row | SMILES | EC50 [1] | EC50 [2] | bioavailability [3] | microsomal CLint [4] | half-life [5] | Kp [6] | solubility kinetic [7] | EC50 [8] | Ratio EC50 (Homo sapiens [9]) | Ratio EC50 (Homo sapiens [10]) | CL [4] | t1/2 [5]
1 | Cl.O=C(O)CCN1CCC2(CC1)COc1cc(/C=C/c3c(Cl)cccc3Cl)ccc12 | 0.0126 µM | > 31.6 µM | 73% | 0.76 µL/min/mg | 30.3 h | 0.8 | 30 to 100 µM |  |  |  |  | 
2 | CCCCCCCCc1ccc(CCC(N)(CO)CO)cc1 [FINGOLIMOD] | 3.16 µM |  |  |  |  |  | 1 to 6.5 µM (≈ 0.307 to 2 µg/mL) | 2.51 µM |  |  |  | 
3 | O=C(O)CCN1CCC2(CC1)COc1cc(OCc3c(Cl)cccc3C(F)(F)F)ccc12 | 0.126 µM | 0.316 µM |  |  |  |  |  | > 10 µM |  |  |  | 
4 | CCc1cccc(CC)c1COc1ccc2c(c1)OCC21CCN(CCC(=O)O)CC1 | 0.02 µM | 1.58 µM |  | 0.92 µL/min/mg | 25.2 h |  | ≥ 100 µM | 1.58 µM |  |  |  | 
5 | O=P(O)(O)OCCN1CCC2(CC1)COc1cc(OCc3c(Cl)cccc3Cl)ccc12 | 0.02 µM | 0.251 µM |  |  |  |  |  | > 10 µM | 100 |  |  | 
6 | O=C(O)C(F)(F)F.O=C(O)CCN1CCC2(CC1)COc1cc(OCc3ccccc3Cl)ccc12 | 0.126 µM |  |  | 9.1 µL/min/mg | 2.55 h |  | 30 to 100 µM | > 31.6 µM |  |  |  | 
7 | CCc1cccc(Cl)c1CSc1ccc2c(c1)OCC21CCN(CCC(=O)O)CC1.Cl | 0.00251 µM | 0.126 µM |  | 42 µL/min/mg | 0.55 h |  | 30 to 100 µM | > 1 µM | 100 |  |  | 
8 | O=C(O)CCN1CCC2(CC1)COc1cc(OCc3cc(Cl)ccc3Cl)ccc12 | 0.2 µM | 12.6 µM |  |  |  |  |  | 1 µM |  |  |  | 
9 | O=C(O)CCN1CCC2(CC1)COc1cc(C#Cc3ccccc3Cl)ccc12 | 0.0251 µM | > 31.6 µM |  |  |  |  |  | > 10 µM | 100 | 1000 |  | 
10 | O=C(O)CCCN1CCC2(CC1)COc1cc(OCc3c(Cl)cccc3Cl)ccc12 | 0.0158 µM | 5.01 µM |  |  |  |  |  | 1.26 µM |  |  |  | 
11 | CCc1cccc(Cl)c1COc1ccc2c(c1)OCC21CCCN(CCC(=O)O)C1.Cl (stereo unspecified) | 0.0316 µM | > 31.6 µM |  | 3.4 µL/min/mg | 6.82 h |  | ≥ 100 µM | > 10 µM | 100 | 1000 |  | 
12 | Cl.O=C(O)CCN1CCC2(CC1)COc1c2ccc(OCc2c(Cl)cccc2Cl)c1F | 0.00631 µM | 1 µM |  | 6.5 µL/min/mg | 3.55 h |  | 30 to 100 µM | > 10 µM | 1000 |  |  | 
13 | CCCc1cccc(Cl)c1COc1ccc2c(c1)OCC21CCN(CCC(=O)O)CC1 | 0.0158 µM | 2 µM |  |  |  |  |  | 2 µM | 100 |  |  | 
14 | O=C(O)CN1CCC2(CC1)COc1cc(OCc3c(Cl)cccc3Cl)ccc12 | 0.0316 µM | 6.31 µM |  |  |  |  |  | > 1 µM | 100 |  |  | 
15 | Cl.O=C(O)CCN1CCC2(CC1)COc1cc(OCc3cc(Cl)nc(Cl)c3)ccc12 | 0.316 µM | > 31.6 µM |  | 13.9 µL/min/mg | 1.67 h |  | > 100 µM | > 10 µM |  |  |  | 
16 | O=C(O)CCN1CCC2(CC1)COc1cc(OCc3cccc(Cl)c3Cl)ccc12 | 0.2 µM | 1.58 µM |  |  |  |  |  | > 10 µM |  |  |  | 

Row | SMILES | EC50 [1] | EC50 [2] | bioavailability [3] | microsomal CLint [4] | half-life [5] | Kp [6] | solubility kinetic [7] | EC50 [8] | Ratio EC50 (Homo sapiens [9]) | Ratio EC50 (Homo sapiens [10]) | CL [4] | t1/2 [5]
17 | CC(C)c1cccc(Cl)c1COc1ccc2c(c1)OCC21CCN(CCC(=O)O)CC1.Cl | 0.0251 µM | 1.26 µM |  | 2.1 µL/min/mg | 11.2 h |  | 30 to 100 µM | > 10 µM | 100 |  |  | 
18 | Cl.O=C(O)CCN1CCC2(CC1)COc1cc(OCc3c(F)cccc3Cl)ccc12 | 0.0631 µM | 6.31 µM |  | 2.7 µL/min/mg | 8.42 h |  | 30 to 100 µM |  | 100 |  |  | 
19 | Cl.O=C(O)CCN1CCCC2(COc3cc(OCc4c(Cl)cccc4Cl)ccc32)C1 (stereo unspecified) | 0.1 µM |  |  | 3.1 µL/min/mg | 7.57 h |  | ≥ 100 µM |  | 100 |  |  | 
20 | Cl.O=C(O)CCN1CCC2(CC1)COc1cc(SCc3c(Cl)cccc3Cl)ccc12 | 0.0126 µM | > 10 µM |  | 21 µL/min/mg | 1.08 h |  | ≥ 100 µM | 3.98 µM | 100 | 1000 |  | 
21 | Cl.O=C(O)CN1CCC2(CC1)COc1cc(S(=O)(=O)Cc3c(Cl)cccc3Cl)ccc12 | 0.794 µM | > 31.6 µM |  |  |  |  | ≥ 100 µM | > 10 µM |  |  | 33 µL/min | 2.15 h
22 | O=C(O)CCN1CCC2(CC1)COc1cc(OCc3ccccc3)ccc12 | 1 µM | > 31.6 µM |  |  |  |  |  | > 10 µM |  |  |  | 
23 | O=C(O)CCN1CCC2(CC1)COc1cc(OCc3cccc(Cl)c3)ccc12 | 0.316 µM | > 10 µM |  |  |  |  |  | > 10 µM |  |  |  | 
24 | O=C(O)CCN1CCC2(CC1)COc1cc(OCc3c(Cl)cccc3OC(F)(F)F)ccc12 | 0.02 µM | 3.98 µM |  |  |  |  |  |  |  |  |  | 
25 | Cl.O=C(O)CCN1CCC2(CC1)COc1cc(OCc3c(Cl)cccc3Cl)ccc12 | 0.158 µM | 6.31 µM |  | 3.1 µL/min/mg | 7.45 h | 0.2 | ≥ 100 µM | > 10 µM |  |  |  | 
26 | Cl.O=C(O)CCN1CCC2(CC1)COc1cc(C#Cc3ccccc3)ccc12 | 0.0398 µM |  |  | 8.3 µL/min/mg | 2.78 h |  | 100 µM |  |  |  |  | 
27 | CC(CN1CCC2(CC1)COc1cc(OCc3c(Cl)cccc3Cl)ccc12)C(=O)O (stereo unspecified) | 0.0631 µM | 1.26 µM |  |  |  |  |  |  |  |  |  | 
28 | O=C(O)CCN1CCC2(CC1)COc1cc(OCCCc3ccccc3)ccc12 | 2 µM | 5.01 µM |  |  |  |  |  | 1.58 µM |  |  |  | 
29 | CCc1cccc(Cl)c1COc1ccc2c(c1)OCC21CCN(CCC(=O)O)CC1 | 0.0158 µM |  |  |  |  |  |  | > 10 µM | 100 |  |  | 
30 | Cc1cc(Cl)c(COc2ccc3c(c2)OCC32CCN(CCC(=O)O)CC2)c(Cl)c1 | 0.00794 µM | 0.316 µM |  |  |  |  |  |  |  |  |  | 
31 | CCc1cccc(Cl)c1COc1ccc2c(c1)OCC21CCN(CC(C)C(=O)O)CC1.Cl (stereo unspecified) | 0.0158 µM | 0.316 µM |  | 6.1 µL/min/mg | 3.8 h |  | ≥ 100 µM | > 10 µM | 100 |  |  | 
